In patent publication US9657351B2, “MRNA-based gene expression for personalizing patient cancer therapy with an MDM2 antagonist” (Hoffmann-La Roche Inc., priority 2013, dated 2017):
Entries after “also recorded” stand apart in the source; their conditions may differ. Read-outs that look alike come from different tables or passages of the source.

Assays:
[1] = tested on: MDM2 mRNA; conditions: NP22890; at C1D8; as previously reported; cited from earlier work
[2] = tested on: Ki-67-positive tumor cells; conditions: NP22890; as previously reported; cited from earlier work
[3] = tested on: P53; conditions: NP22890; at C1D8; as previously reported; cited from earlier work
[4] = tested on: patients with relapsed/refractory leukemia (AML); experiment: NO21279 Phase 1 leukemia trial, clinical response (CR, MLFS, HI, PD); format: in vivo, human
Description: The performance of the MDM2 antagonist predictive mRNA response signature is tested in the clinical setting with specimens from the NO21279 leukemia trial (FIG. 1). 28 AML patients treated at the MTD are enrolled and completed pretreatment and C1D10 (cycle 1, day 10) sampling. […] The clinical endpoint in NO21279 was divided into 4 categories: Complete Response (CR), Morphologic Leukemia-Free State (MLFS), Hematologic Improvement (HI), and Progressive Disease (PD). Blood leukemia samples and bone marrow biopsy samples were collected at baseline screening, after a single dose (cycle 1 day 2, C1D2) and on last day of dosing (cycle 1, day 10, C1D10) and isolated via MACS® separation^11. The early pharmacodynamic effect of MDM2 antagonism in blood leukemia samples was assessed by measuring MDM2 RT PCR change between baseline and C1D10. Global gene expression profiles were generated for the peripheral blood leukemia cells and bone marrow biopsy samples obtained at baseline, C1D2 and C1D10.
(§1) In the NO21279 Phase 1 clinical trial, patients with relapsed/refractory leukemia are treated with ascending doses of COMPOUND A. Specimens from subset of patients treated at the MTD (1500 mg BID×10 days) are evaluated as a part of the current gene expression study. Leukemia samples are collected at baseline, cycle 1 day 2 (C1D2) and cycle 1, day 10 (C1D10) and isolated via MACs separation.
as §1, with “RG7112.” for “COMPOUND A.”
Clinical responses are evaluated and are divided into 4 categories: Complete Response (CR), Morphologic Leukemia-Free State (MLFS), Hematologic Improvement (HI), and Progressive Disease (PD). […] In addition to assessments of baseline samples, treatment samples are also evaluated (Cycle 1, Day 10).

[5] = tested on: P21; experiment: NP21280 solid tumor trial, tumor biopsy biomarker (p21 IHC); format: in vivo, human; conditions: p=2.32×10−3
Description: The predictive mRNA signature is also evaluated in two solid tumor trials (FIG. 1). […] In both clinical trials, a biomarker package that enabled assessment of p53 pathway activation is assessed (p53 IHC, p21 IHC, MDM2 mRNA, and Ki67), MDM2 inhibition activates the P53 pathway and decreases cell proliferation.

[6] = tested on: Ki-67-positive tumor cells; experiment: NP21280 solid tumor trial, tumor biopsy biomarker (Ki67); format: in vivo, human; conditions: p=2.62×10−2
Description: The predictive mRNA signature is also evaluated in two solid tumor trials (FIG. 1). In trial NP21280 30 patients with pretreatment and C1D5 tumor biopsy samples are evaluated; and in NP22890 20 patients with pretreatment and C1D8 tumor biopsy samples are evaluated (Table 6). In both clinical trials, a biomarker package that enabled assessment of p53 pathway activation is assessed (p53 IHC, p21 IHC, MDM2 mRNA, and Ki67), MDM2 inhibition activates the P53 pathway and decreases cell proliferation.

[7] = of 28 AML patients treated at the MTD (1500 mg BID×10 days)

## CCOc1cc(C(C)(C)C)ccc1C1=N[C@@](C)(c2ccc(Cl)cc2)[C@@](C)(c2ccc(Cl)cc2)N1C(=O)N1CCN(CCCS(C)(=O)=O)CC1 [COMPOUND A]
[1]
  MDM2 mRNA expression change from baseline: significantly increase
[2]
  Ki-67-positive tumor cells change from baseline: decreased
[3]
  P53 concentration change from baseline: significantly increase
[4]; all 28 patients, NO21279
  Response, number of patients with CR: 3CR,
  Response, number of patients with HI: 6 HI,
  Response, number of patients with MLFS: 4 MLFS,
  Response, number of patients with PD: 15 PD
[4]; individual AML patients (no. 1-28), NO21279, MTD 1500 mg BID×10 days, listed as RG7112
  Response: CR (Complete Response (CR)); also recorded: MLFS (Morphologic Leukemia-Free State (MLFS)); also recorded: HI (Hematologic Improvement (HI)); also recorded: PD (Progressive Disease (PD))
[4]; [7]
  clinical response: number of patients with Complete Response (CR): 3
  clinical response: number of patients with Hematologic Improvement (HI): 6
  clinical response: number of patients with Morphologic Leukemia-Free State (MLFS): 4
  clinical response: number of patients with Progressive Disease (PD): 15
[5]
  P21 concentration change from baseline: significantly increase
[6]
  Ki-67-positive tumor cells change from baseline: decreased
